Publication PMC3050433, “The effects of maribavir on the autophosphorylation of ganciclovir resistant mutants of the cytomegalovirus UL97 protein” (Herpesviridae, 2010)

Molecular target: T1, UL97 H662L (Human cytomegalovirus, UniProt Q68101, H662L)
T1 construct: PCR reaction to generate the full length UL97; honey bee melittin secretion signal (N); made in house; host or cells: Sf21 insect cells, recombinant baculovirus (pMelBac C)
T1 sequence (Q68101 1-707 H662L): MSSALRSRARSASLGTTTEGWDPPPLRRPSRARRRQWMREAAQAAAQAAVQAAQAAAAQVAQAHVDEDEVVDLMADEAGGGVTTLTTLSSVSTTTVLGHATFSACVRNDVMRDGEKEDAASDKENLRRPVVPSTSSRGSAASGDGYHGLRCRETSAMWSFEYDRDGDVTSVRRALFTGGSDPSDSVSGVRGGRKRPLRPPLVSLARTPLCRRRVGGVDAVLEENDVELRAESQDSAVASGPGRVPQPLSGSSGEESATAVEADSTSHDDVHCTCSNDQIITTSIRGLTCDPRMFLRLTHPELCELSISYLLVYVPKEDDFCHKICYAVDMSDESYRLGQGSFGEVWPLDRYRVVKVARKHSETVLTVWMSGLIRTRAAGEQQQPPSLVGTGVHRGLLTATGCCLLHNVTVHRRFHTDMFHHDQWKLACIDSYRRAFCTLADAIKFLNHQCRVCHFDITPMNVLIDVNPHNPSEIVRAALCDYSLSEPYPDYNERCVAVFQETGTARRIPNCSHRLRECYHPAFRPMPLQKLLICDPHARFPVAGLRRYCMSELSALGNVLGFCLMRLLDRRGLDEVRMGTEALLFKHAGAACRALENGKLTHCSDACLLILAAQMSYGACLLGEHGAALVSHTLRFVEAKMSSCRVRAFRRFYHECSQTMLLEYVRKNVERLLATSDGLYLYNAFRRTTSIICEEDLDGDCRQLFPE
Assay: UL97 autophosphorylation protein kinase assay, H662L
Type: biochemical
Conditions: H662L mutant
Experimental: Analysis of the autophosphorylation of wild type and mutant UL97 protein species was performed by a standard protein kinase assay as previously described (46). Briefly, purified protein was added to 2× protein kinase buffer (100 mM Tris HCl, pH9.0, 20 mM MgCl2, 10 μM ATP, 4 mM DTT, 2 M NaCl) and 370 KBq [γ^32P] ATP (Amersham), made up to 20 μl with SDW and incubated at 37°C. The reactions were terminated by the addition of 2× SDS sample buffer followed by boiling for 3 minutes. The amount of radiolabelled phosphate incorporated by autophosphorylation was analysed by SDS-PAGE and measured using the Biorad Mulitanalyst. The protein kinase assays were initially performed for 2 to 60 minutes to determine the maximum rate of phosphate incorporation, all assays were then performed at the maximum rate which equated to 5 minutes.
Enzyme kinetic analysis was performed on the purified wild type and mutant UL97 protein species as above using increasing concentrations of ATP (2 μM to 20 μM). The amount of incorporated radiolabelled phosphate was plotted against the concentration of ATP in a Lineweaver Burke plot to determine the Km for ATP for each UL97 species. […]

CC(C)Nc1nc2cc(Cl)c(Cl)cc2n1[C@H]1O[C@@H](CO)[C@H](O)[C@@H]1O [maribavir, 5,6-dichloro-2-(isopropylamino)-1-beta-L-ribofuranosyl-1H-benzimidazole]
IC50: 40 nM
